Laboratory results: US5891717A, “Methods and compositions for inhibiting hexokinase” (priority 1996, dated 1999)
pKi: −log10 of the molar value.

What was measured:
[1] = target: T1, native hexokinase I, overexpressed (Rattus norvegicus, UniProt P05708); conditions: typically seen (Becker et al., 1994; 1996); cited from earlier work
T1 sequence (P05708 1-918): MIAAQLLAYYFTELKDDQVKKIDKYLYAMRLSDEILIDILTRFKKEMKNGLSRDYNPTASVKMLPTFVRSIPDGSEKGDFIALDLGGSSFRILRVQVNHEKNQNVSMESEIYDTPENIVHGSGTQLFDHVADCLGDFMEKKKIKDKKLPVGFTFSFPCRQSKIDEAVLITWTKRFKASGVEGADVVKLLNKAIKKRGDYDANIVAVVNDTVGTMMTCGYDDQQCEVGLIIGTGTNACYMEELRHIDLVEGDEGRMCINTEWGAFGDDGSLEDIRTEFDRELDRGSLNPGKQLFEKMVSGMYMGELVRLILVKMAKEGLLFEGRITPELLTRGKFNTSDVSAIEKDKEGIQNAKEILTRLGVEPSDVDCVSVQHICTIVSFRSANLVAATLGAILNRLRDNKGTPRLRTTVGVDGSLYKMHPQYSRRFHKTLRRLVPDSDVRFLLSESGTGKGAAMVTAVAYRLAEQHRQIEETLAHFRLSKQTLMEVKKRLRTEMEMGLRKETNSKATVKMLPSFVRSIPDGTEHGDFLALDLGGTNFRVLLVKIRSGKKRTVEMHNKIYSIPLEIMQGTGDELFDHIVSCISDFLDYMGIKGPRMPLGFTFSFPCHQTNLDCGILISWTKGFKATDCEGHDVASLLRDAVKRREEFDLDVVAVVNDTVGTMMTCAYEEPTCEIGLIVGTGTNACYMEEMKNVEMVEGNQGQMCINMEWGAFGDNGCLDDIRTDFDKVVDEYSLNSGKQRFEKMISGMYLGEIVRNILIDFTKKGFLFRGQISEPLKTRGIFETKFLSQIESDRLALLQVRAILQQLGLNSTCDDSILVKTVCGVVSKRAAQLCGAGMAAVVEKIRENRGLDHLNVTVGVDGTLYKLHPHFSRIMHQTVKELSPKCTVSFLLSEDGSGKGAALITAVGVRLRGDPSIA

[2] = target: glucokinase (GK, hexokinase IV); conditions: cited from earlier work
[3] = target: T2, HK-isletGK chimera: N-terminal 455 amino acids of rat hexokinase I fused to rat islet glucokinase, SEQ ID NO:12 (DNA SEQ ID NO:11) (Rattus norvegicus, UniProt P17712); assay: Glucose phosphorylating activity in extracts of transiently transfected 293 cells, with and without G6P; format: biochemical; conditions: 10 mM G6P, 20 mM glucose, 293 cell extracts
T2 construct: expressed in transfected cells; host or cells: human embryonic kidney 293 cells, crude extract
T2 sequence (P17712 with tags, fused parts or gaps): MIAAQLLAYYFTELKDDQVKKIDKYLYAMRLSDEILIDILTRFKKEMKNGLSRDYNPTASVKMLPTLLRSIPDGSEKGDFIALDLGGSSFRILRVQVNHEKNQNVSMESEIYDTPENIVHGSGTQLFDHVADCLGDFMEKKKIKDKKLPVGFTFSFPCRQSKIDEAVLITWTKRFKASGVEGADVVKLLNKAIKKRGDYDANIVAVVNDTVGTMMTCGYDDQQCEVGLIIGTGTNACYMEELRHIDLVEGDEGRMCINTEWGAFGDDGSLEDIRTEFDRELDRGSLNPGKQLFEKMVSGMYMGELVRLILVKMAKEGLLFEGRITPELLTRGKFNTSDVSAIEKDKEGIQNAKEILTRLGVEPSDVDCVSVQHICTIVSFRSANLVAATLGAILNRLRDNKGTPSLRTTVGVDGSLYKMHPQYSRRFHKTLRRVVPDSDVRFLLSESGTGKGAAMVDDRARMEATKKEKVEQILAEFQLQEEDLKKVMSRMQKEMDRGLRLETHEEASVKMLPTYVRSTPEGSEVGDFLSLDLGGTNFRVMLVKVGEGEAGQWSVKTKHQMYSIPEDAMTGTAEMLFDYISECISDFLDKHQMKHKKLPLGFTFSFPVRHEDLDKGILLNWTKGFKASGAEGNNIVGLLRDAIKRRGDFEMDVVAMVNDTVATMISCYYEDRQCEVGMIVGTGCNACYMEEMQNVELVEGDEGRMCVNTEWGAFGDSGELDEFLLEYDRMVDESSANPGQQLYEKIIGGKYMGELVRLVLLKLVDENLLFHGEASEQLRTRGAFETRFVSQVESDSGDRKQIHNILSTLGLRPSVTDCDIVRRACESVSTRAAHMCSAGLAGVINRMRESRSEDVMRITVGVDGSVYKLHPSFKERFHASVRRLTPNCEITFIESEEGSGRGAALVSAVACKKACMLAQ
Description: (§1) For transient transfection studies, cDNAs encoding chimeric hexokinase/glucokinase proteins consisting of the N-terminal domain of hexokinase I (amino acids 1-455) linked in frame to either the full length liver isoform of glucokinase (HK-liverGK, SEQ ID NO:8) or the islet isoform of glucokinase (HK-isletGK, SEQ ID NO:11) were cloned into pAC.CMVpLpA.
(§2) Plasmids containing DNA encoding either intact islet glucokinase, hexokinase I or one of the two hexokinase/glucokinase chimeras were introduced into the human embryonic kidney cell line 293, using Ca2 PO4 co-precipitation. After incubation with the plasmid DNA, cells were cultured for an additional 48 hours. Cells were harvested and crude extracts prepared for assay of glucose phosphorylating activity, using a radioisotopic assay that monitors conversion of U-^14 C glucose to U^14 C glucose-6-phosphate.
(§3) Assays were performed at 3 and 20 mM glucose. At the lower glucose concentration, hexokinase activity is maximal while glucokinase activity is very low. […] The assay was also performed in the presence and absence of 10 mM unlabeled glucose-6-phosphate (G6P).

[4] = target: T3, HK-liverGK chimera: N-terminal 455 amino acids of rat hexokinase I fused to rat liver glucokinase, SEQ ID NO:9 (DNA SEQ ID NO:8) (Rattus norvegicus, UniProt P17712); assay: as above; format: biochemical; conditions: 10 mM G6P, 20 mM glucose, 293 cell extracts
T3 construct: expressed in transfected cells; host or cells: human embryonic kidney 293 cells, crude extract
T3 sequence (P17712 with tags, fused parts or gaps isoform P17712-3): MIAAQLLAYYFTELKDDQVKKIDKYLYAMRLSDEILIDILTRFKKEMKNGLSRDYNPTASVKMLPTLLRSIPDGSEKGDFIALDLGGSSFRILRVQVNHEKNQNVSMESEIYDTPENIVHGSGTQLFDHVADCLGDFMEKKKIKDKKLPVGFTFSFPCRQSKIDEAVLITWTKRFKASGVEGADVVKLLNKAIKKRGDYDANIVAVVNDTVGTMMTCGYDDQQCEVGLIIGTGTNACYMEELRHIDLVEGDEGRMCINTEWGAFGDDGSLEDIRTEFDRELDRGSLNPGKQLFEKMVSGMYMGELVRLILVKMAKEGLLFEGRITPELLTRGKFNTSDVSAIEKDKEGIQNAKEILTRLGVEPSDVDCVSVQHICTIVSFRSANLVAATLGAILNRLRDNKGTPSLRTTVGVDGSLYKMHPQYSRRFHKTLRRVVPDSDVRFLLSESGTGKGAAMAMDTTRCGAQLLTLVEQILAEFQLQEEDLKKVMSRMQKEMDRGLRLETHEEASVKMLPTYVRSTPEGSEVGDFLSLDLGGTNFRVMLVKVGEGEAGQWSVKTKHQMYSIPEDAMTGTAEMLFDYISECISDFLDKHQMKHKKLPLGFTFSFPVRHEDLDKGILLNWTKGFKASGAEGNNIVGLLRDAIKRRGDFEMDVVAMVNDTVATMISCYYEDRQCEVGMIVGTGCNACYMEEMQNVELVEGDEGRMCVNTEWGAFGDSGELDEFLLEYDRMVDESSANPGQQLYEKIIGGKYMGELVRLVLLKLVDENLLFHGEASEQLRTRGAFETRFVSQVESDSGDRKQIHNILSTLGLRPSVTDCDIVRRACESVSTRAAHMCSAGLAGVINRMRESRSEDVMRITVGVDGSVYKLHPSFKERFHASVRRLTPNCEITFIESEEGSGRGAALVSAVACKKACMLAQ
Description: as §1, §2, §3

[5] = target: low Km hexokinases I, II and III (HKI-III); conditions: cited from earlier work
[6] = target: T4, native (wild type) islet glucokinase, overexpressed (Rattus norvegicus, UniProt P17712); assay: Glucose phosphorylating activity in extracts of transiently transfected 293 cells, with and without G6P; format: biochemical; conditions: 10 mM G6P, 293 cell extracts
T4 construct: Plasmids containing DNA encoding either intact islet glucokinase, hexokinase I; expressed in transfected cells; host or cells: human embryonic kidney 293 cells, crude extract
T4 sequence (P17712 1-465): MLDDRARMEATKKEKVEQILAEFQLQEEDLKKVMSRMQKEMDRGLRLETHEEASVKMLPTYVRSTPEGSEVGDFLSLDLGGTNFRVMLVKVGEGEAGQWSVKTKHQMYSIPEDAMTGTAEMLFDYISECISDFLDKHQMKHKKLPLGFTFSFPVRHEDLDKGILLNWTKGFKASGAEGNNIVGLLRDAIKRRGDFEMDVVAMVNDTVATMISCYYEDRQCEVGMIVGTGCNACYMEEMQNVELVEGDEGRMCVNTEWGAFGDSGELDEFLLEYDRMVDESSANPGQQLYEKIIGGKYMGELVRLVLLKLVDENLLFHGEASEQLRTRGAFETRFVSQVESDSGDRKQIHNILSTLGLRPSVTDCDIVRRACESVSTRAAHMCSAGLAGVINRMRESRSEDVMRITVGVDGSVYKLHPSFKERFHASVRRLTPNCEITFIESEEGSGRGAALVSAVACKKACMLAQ
Experimental: as §2, with “glucose-6-phosphate. The extract buffer and assay procedure have previously been described in detail (Kuwajima, et al., 1986; Becker, et al., 1994; each incorporated herein by reference).” for “glucose-6-phosphate.”
Assays were performed at 3 and 20 mM glucose. At the lower glucose concentration, hexokinase activity is maximal while glucokinase activity is very low. At the higher concentration, glucokinase activity is increased to near maximal. The assay was also performed in the presence and absence of 10 mM unlabeled glucose-6-phosphate (G6P). In the presence of G6P, low Km hexokinases are inhibited, but glucokinase is not.

[7] = running text (Wilson, 1985), read-out: Km for glucose

Compound | inhibition of glucose phosphorylating activity by G6P [1] | pKi ([2]; Table 1, GK, read-out: Ki G-6-P) | glucose-6-phosphate concentration required for appreciable inhibition [2] | inhibition of glucose phosphorylating activity by G6P [3] | inhibition of glucose phosphorylating activity by G6P [4] | pKi ([5]; Table 1, HKI-III, read-out: Ki G-6-P) | effect of glucose-6-phosphate on glucose phosphorylating activity [6] | Km [2, 7] | Km [5, 7]
O=P(O)(O)OC[C@H]1OC(O)[C@H](O)[C@@H](O)[C@@H]1O (stereo partly drawn) [glucose-6-phosphate] | 90% | 1.22 | > 10 mM | approximately 40% | approximately 20% | 3.05 to 3.70 | no significant effect |  | 
OC[C@H]1OC(O)[C@H](O)[C@@H](O)[C@@H]1O (stereo partly drawn) [glucose] |  |  |  |  |  |  |  | 6 to 8 mM | 0.01 to 0.05 mM
